In patent publication US12577206B2 (BRISTOL-MYERS SQUIBB COMPANY, priority 2020, dated 2026) one finds EC50 data, which are given here for 16 compounds.

For assay [1], the target named is T1, human FPR2 (Homo sapiens, UniProt P25090).
T1 sequence (P25090 1-351): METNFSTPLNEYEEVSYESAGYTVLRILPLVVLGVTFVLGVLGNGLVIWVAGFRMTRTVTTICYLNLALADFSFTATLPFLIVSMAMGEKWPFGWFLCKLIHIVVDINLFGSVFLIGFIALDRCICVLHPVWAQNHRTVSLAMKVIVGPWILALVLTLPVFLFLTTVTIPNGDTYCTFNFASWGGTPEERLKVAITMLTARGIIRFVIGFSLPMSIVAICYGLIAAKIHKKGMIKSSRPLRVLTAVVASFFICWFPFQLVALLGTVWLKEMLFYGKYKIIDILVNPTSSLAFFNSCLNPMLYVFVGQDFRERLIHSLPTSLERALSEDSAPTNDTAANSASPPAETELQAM
As to the kind of experiment: FPR2 cyclic adenosine monophosphate (cAMP) assay. The following applies: CHO cells overexpressing human FPR2; forskolin 5 μM; inhibition of cAMP production; HTRF; read-out: hFPR2 cAMP2 EC50. The format is cell-based. The procedure, abridged: (§1)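 Gi-coupled activity is read as suppression of forskolin-stimulated cAMP (10 μM final for FPR1, 5 μM final for FPR2; IBMX 200 μM final) in recombinant CHO cells, 30 min incubation at rt, HTRF detection.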

The target in assay [2] is T2, human FPR1 (Homo sapiens, UniProt P21462).
T2 sequence (P21462 1-350): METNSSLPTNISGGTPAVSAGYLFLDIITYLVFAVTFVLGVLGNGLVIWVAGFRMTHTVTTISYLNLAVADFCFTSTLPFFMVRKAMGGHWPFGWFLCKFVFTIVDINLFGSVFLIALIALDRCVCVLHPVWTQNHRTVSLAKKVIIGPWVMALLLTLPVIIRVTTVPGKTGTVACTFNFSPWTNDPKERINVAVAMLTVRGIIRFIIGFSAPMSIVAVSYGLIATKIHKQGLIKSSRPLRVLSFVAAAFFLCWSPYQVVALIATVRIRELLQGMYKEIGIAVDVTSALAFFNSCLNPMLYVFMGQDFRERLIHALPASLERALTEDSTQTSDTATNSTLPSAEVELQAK
As to the kind of experiment: FPR1 cyclic adenosine monophosphate (cAMP) assay. The format is cell-based. The following applies: CHO cells overexpressing human FPR1; forskolin 10 μM; inhibition of cAMP production; HTRF; read-out: hFPR1 cAMP2 EC50. The procedure, abridged: as §1

Take `COc1cc(F)c(-c2c(NC(=O)c3ccc(OC(F)F)cc3)c(=O)n(CCO)n2C)c(F)c1` [Example 58, N-[5-(2,6-difluoro-4-methoxyphenyl)-2-(2-hydroxyethyl)-1-methyl-3-oxo-2,3-dihydro-1H-pyrazol-4-yl]-4-(difluoromethoxy)benzamide]: the EC50 is 230 nM in assay [1] and > 10000 nM in assay [2].
For `COc1cc(F)c(-c2c(NC(=O)c3ccc(Cl)cc3)c(=O)n(-c3nc(N4CC(OC(C)C)C4)ccc3C(F)(F)F)n2C)c(F)c1` [Example 141, 4-chloro-N-[5-(2,6-difluoro-4-methoxyphenyl)-1-methyl-3-oxo-2-{6-[3-(propan-2-yloxy)azetidin-1-yl]-3-(trifluoromethyl)pyridin-2-yl}-2,3-dihydro-1H-pyrazol-4-yl]benzamide] the same measures were 7 nM and 3300 nM.
For `COc1cc(F)c(-c2c(NC(=O)c3ccc(OC(F)F)cc3)c(=O)n(-c3cc(OC(C)C)cc(OCC(C)(C)O)n3)n2C)c(F)c1` [Example 377, N-(5-(2,6-Difluoro-4-methoxyphenyl)-2-(6-(2-hydroxy-2-methylpropoxy)-4-isopropoxypyridin-2-yl)-1-methyl-3-oxo-2,3-dihydro-1H-pyrazol-4-yl)-4-(difluoromethoxy)benzamide], the EC50 worked out at 8 nM in assay [1] and 470 nM in assay [2].
For `COc1cc(F)c(-c2c(NC(=O)c3ccc(OC(F)(F)F)cc3)c(=O)n(-c3cc(C(F)(F)F)ccn3)n2C)c(F)c1` [Example 63, N-[5-(2,6-difluoro-4-methoxyphenyl)-1-methyl-3-oxo-2-[4-(trifluoromethyl)pyridin-2-yl]-2,3-dihydro-1H-pyrazol-4-yl]-4-(trifluoromethoxy)benzamide] the same measures were 7 nM and > 10000 nM.
The like results for `COc1cc(F)c(-c2c(NC(=O)c3ccc(OC(F)F)cc3)c(=O)n(-c3cccc(C)n3)n2C)c(F)c1` [Example 46, N-[5-(2,6-difluoro-4-methoxyphenyl)-1-methyl-2-(6-methylpyridin-2-yl)-3-oxo-2,3-dihydro-1H-pyrazol-4-yl]-4-(difluoromethoxy)benzamide] were, in that order, 22 nM and > 10000 nM.
For `[2H]C([2H])([2H])Oc1cc(F)c(-c2c(NC(=O)c3ccc(OC(F)F)cc3)c(=O)n(-c3cccc(C(C)(C)O)n3)n2C)c(F)c1` [Example 404, N-(5-(2,6-difluoro-4-(methoxy-d3)phenyl)-2-(6-(2-hydroxypropan-2-yl)pyridin-2-yl)-1-methyl-3-oxo-2,3-dihydro-1H-pyrazol-4-yl)-4-(difluoromethoxy)benzamide] the same measures were 7 nM and 1500 nM.
For `COc1cc(F)c(-c2c(NC(=O)c3ccc(OC(F)F)cc3)c(=O)n(-c3nc(N4CC(C)(O)C4)ccc3C(F)(F)F)n2C)c(F)c1` [Example 138, N-[5-(2,6-difluoro-4-methoxyphenyl)-2-[6-(3-hydroxy-3-methylazetidin-1-yl)-3-(trifluoromethyl)pyridin-2-yl]-1-methyl-3-oxo-2,3-dihydro-1H-pyrazol-4-yl]-4-(difluoromethoxy)benzamide], the values for the EC50 in assay [1] and in assay [2] were 4 nM and 4800 nM, respectively.
For `COc1cc(F)c(-c2c(NC(=O)c3ccc(OC(F)F)cc3)c(=O)n(-c3ccnc(Cl)c3)n2C)c(F)c1` [Example 116, N-[2-(2-chloropyridin-4-yl)-5-(2,6-difluoro-4-methoxyphenyl)-1-methyl-3-oxo-2,3-dihydro-1H-pyrazol-4-yl]-4-(difluoromethoxy)benzamide] the same measures were 21 nM and 2000 nM.
The like results for `COc1cc(F)c(-c2c(NC(=O)c3ccc(OC(F)F)cc3)c(=O)n(-c3cc(C)cc(C#N)n3)n2C)c(F)c1` [Example 362, N-(2-(6-Cyano-4-methylpyridin-2-yl)-5-(2,6-difluoro-4-methoxyphenyl)-1-methyl-3-oxo-2,3-dihydro-1H-pyrazol-4-yl)-4-(difluoromethoxy)benzamide] were, in that order, 10 nM and > 10000 nM.
The like results for `COc1cc(F)c(-c2c(NC(=O)c3ccc(OC(F)F)cc3)c(=O)n(-c3cc(OC)ccc3Cl)n2C)c(F)c1` [Example 198, N-[2-(2-chloro-5-methoxyphenyl)-5-(2,6-difluoro-4-methoxyphenyl)-1-methyl-3-oxo-2,3-dihydro-1H-pyrazol-4-yl]-4-(difluoromethoxy)benzamide] were, in that order, 13 nM and > 10000 nM.
As to `COC(=O)[C@@H]1CCCN1c1ccc(C(F)(F)F)c(-n2c(=O)c(NC(=O)c3ccc(OC(F)F)cc3)c(-c3c(F)cc(OC)cc3F)n2C)n1` [Example 259, methyl (2S)-1-{6-[3-(2,6-difluoro-4-methoxyphenyl)-4-[4-(difluoromethoxy)benzamido]-2-methyl-5-oxo-2,5-dihydro-1H-pyrazol-1-yl]-5-(trifluoromethyl)pyridin-2-yl}pyrrolidine-2-carboxylate], the EC50 is 10 nM in assay [1] and > 10000 nM in assay [2].
For `COc1cc(F)c(-c2c(NC(=O)c3ccc(OC(F)F)cc3)c(=O)n(-c3ccc(C4CC4)cn3)n2C)c(F)c1` [Example 47, N-[2-(5-cyclopropylpyridin-2-yl)-5-(2,6-difluoro-4-methoxyphenyl)-1-methyl-3-oxo-2,3-dihydro-1H-pyrazol-4-yl]-4-(difluoromethoxy)benzamide] the same measures were 6 nM and 460 nM.
Take `COc1cc(F)c(-c2c(NC(=O)c3ccc(OC(F)F)cc3)c(=O)n(-c3ncccc3C#N)n2C)c(F)c1` [Example 55, N-[2-(3-cyanopyridin-2-yl)-5-(2,6-difluoro-4-methoxyphenyl)-1-methyl-3-oxo-2,3-dihydro-1H-pyrazol-4-yl]-4-(difluoromethoxy)benzamide]: the EC50 stood at 8 nM in assay [1] and 9600 nM in assay [2].
The like results for `COc1cc(F)c(-c2c(NC(=O)c3ccc(OC(F)F)cc3)c(=O)n(-c3cccc(N4CCN(S(C)(=O)=O)CC4)n3)n2C)c(F)c1` [Example 213, N-[5-(2,6-difluoro-4-methoxyphenyl)-2-[6-(4-methanesulfonylpiperazin-1-yl)pyridin-2-yl]-1-methyl-3-oxo-2,3-dihydro-1H-pyrazol-4-yl]-4-(difluoromethoxy)benzamide] were, in that order, 16 nM and > 10000 nM.
The like results for `COc1cc(F)c(-c2c(NC(=O)c3ccc(OC(F)F)cc3)c(=O)n(-c3cc(OC4CCOC4)cc(C)n3)n2C)c(F)c1` (centres unmarked) [Example 321, N-(5-(2,6-Difluoro-4-methoxyphenyl)-1-methyl-2-(6-methyl-4-((tetrahydrofuran-3-yl)oxy)pyridin-2-yl)-3-oxo-2,3-dihydro-1H-pyrazol-4-yl)-4-(difluoromethoxy)benzamide] were, in that order, 4 nM and 390 nM.
For `COc1cc(F)c(-c2c(NC(=O)c3ccc(OC(F)F)cc3)c(=O)n(-c3ncccc3Br)n2C)c(F)c1` [Example 165, N-[2-(3-bromopyridin-2-yl)-5-(2,6-difluoro-4-methoxyphenyl)-1-methyl-3-oxo-2,3-dihydro-1H-pyrazol-4-yl]-4-(difluoromethoxy)benzamide] the same measures were 15 nM and > 10000 nM.
